Data taken from PMC8000448, “Inhibitory Effects of Schisandra Lignans on Cytochrome P450s and Uridine 5′-Diphospho-Glucuronosyl Transferases in Human Liver Microsomes” (Pharmaceutics, 2021).
Like-named read-outs stand apart in the source and are kept apart here.

Tests used:
Format in all cases: in vitro ADME
[1] = target: T1, CYP2A6 (Homo sapiens, UniProt P11509); assay: CYP2A6 inhibition in HLMs (coumarin)
T1 construct: pooled HLMs (0.25 mg/mL); tissue XenoTech H2630; host or cells: pooled human liver microsomes, mixed gender
T1 sequence (P11509 1-494): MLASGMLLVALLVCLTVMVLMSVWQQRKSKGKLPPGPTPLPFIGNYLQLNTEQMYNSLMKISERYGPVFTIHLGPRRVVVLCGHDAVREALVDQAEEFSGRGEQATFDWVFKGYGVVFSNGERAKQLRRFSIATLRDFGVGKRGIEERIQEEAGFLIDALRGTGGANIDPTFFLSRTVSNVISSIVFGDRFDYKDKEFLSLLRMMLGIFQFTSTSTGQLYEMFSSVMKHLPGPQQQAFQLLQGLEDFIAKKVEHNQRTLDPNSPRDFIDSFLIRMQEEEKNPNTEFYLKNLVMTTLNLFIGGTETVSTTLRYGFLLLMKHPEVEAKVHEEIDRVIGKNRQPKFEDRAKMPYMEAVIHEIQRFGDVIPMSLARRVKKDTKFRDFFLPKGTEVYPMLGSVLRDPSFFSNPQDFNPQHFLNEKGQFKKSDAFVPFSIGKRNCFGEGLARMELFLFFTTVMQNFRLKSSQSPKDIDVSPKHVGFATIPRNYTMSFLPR
Protocol: (§1) Lignans were first dissolved in methanol. […] All microsomal incubations were performed in triplicate.

[2] = target: T2, CYP2B6 (Homo sapiens, UniProt P20813); assay: CYP2B6 inhibition in HLMs (bupropion)
T2 construct: pooled HLMs (0.25 mg/mL); tissue XenoTech H2630; host or cells: pooled human liver microsomes, mixed gender
T2 sequence (P20813 1-491): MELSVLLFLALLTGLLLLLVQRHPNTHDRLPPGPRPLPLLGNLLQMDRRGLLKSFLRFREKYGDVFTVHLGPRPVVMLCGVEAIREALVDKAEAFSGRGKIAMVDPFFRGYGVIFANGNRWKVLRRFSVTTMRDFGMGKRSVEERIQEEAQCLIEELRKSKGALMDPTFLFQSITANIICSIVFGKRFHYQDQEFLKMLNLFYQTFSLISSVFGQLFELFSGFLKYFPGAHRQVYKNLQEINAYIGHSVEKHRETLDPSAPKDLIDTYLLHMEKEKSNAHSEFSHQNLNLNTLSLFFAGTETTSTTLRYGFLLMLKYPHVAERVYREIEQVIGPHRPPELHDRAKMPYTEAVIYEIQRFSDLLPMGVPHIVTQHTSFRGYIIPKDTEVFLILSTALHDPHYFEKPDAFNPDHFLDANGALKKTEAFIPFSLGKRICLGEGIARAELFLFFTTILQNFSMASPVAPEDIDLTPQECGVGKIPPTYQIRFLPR
Protocol: as §1

[3] = target: T3, CYP2C8 (Homo sapiens, UniProt P10632); assay: CYP2C8 inhibition in HLMs (amodiaquine)
T3 construct: pooled HLMs (0.25 mg/mL); tissue XenoTech H2630; host or cells: pooled human liver microsomes, mixed gender
T3 sequence (P10632 1-490): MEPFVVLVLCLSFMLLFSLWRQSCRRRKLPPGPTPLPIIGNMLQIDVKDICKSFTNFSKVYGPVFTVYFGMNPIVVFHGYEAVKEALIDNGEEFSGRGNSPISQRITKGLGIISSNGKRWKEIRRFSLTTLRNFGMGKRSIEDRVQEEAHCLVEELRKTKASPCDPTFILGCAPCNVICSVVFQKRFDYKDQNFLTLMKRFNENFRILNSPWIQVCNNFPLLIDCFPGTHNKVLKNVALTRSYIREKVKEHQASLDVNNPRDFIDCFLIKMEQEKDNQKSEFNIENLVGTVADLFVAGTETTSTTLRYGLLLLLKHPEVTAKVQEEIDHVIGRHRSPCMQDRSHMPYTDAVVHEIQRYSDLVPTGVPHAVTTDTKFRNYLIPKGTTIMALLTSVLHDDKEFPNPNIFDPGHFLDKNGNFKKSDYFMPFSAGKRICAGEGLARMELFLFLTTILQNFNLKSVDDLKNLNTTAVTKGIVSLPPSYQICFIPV
Protocol: as §1

[4] = target: T4, UGT1A1 (Homo sapiens, UniProt P22309); assay: UGT1A1 inhibition in HLMs (SN-38); conditions: average in triplicate, read-out: IC50, UGT 1A1
T4 construct: pooled HLMs (0.25 mg/mL); tissue XenoTech H2630; host or cells: pooled human liver microsomes, mixed gender
T4 sequence (P22309 26-533): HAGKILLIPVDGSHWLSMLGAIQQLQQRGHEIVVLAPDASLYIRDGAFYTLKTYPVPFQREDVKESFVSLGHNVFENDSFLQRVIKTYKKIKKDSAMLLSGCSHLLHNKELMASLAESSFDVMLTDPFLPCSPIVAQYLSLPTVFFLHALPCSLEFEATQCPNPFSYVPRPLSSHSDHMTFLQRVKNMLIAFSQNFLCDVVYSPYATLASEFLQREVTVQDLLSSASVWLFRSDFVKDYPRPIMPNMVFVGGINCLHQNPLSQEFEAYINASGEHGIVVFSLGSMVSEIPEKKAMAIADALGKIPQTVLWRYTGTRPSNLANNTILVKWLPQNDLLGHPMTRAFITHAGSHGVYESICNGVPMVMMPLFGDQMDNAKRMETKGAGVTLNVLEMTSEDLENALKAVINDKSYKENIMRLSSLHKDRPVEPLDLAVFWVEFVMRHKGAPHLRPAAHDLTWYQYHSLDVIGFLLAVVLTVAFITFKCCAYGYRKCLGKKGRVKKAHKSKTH
Protocol: (§2) The inhibitory potential of six lignans on six UGT activities was evaluated using the previously developed cocktail method with slight modifications. […] These substrates are known to be selective for each UGT isoforms.

[5] = target: T5, UGT2B7 (Homo sapiens, UniProt P16662); assay: UGT2B7 inhibition in HLMs (naloxone); conditions: average in triplicate, read-out: IC50, UGT 2B6 (so in the source)
T5 construct: pooled HLMs (0.25 mg/mL); tissue XenoTech H2630; host or cells: pooled human liver microsomes, mixed gender
T5 sequence (P16662 24-529): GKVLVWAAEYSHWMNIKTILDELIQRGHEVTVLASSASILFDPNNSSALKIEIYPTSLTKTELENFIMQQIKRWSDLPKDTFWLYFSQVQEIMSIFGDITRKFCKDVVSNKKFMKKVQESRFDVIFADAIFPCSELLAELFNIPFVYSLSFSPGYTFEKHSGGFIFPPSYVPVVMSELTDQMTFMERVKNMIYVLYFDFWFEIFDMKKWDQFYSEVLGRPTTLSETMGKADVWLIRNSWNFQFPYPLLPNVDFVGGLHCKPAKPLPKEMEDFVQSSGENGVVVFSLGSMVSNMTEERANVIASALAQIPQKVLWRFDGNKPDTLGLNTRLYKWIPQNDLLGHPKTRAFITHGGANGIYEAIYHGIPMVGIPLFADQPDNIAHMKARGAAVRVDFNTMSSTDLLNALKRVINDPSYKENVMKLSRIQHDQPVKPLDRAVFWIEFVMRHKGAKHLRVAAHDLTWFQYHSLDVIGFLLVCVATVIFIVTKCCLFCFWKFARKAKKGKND
Protocol: as §2

[6] = 30 min pre-incubation with NADPH generating system, read-out: IC50 TDI, CYP2A6
[7] = reversible inhibition, read-out: IC50 RI, CYP2A6
[8] = 30 min pre-incubation with NADPH generating system, read-out: IC50 TDI, CYP2B6
[9] = reversible inhibition, read-out: IC50 RI, CYP2B6
[10] = 30 min pre-incubation with NADPH generating system, read-out: IC50 TDI, CYP2C8
[11] = reversible inhibition, read-out: IC50 RI, CYP2C8

SMILES | IC50 [1, 6] | IC50 [1, 7] | IC50 [2, 8] | IC50 [2, 9] | IC50 [3, 10] | IC50 shift at 10 min ([3]; human, pooled human liver microsomes, pH 7.4, probe amodiaquine, RI/TDI fold shift) | IC50 [3, 11] | IC50 [4] | IC50 [5]
COc1cc2c(c(OC)c1OC)-c1c(cc3c(c1OC)OCO3)C[C@H](C)[C@H](C)C2 [Gomisin N, gomisin N] | > 50 µM | 38.2 µM | > 50 µM | 38.3 µM | 9.9 µM | 3.2 | 31.7 µM | > 50 µM | > 50 µM
COc1cc2c(c(OC)c1OC)-c1c(cc(OC)c(OC)c1OC)C[C@](C)(O)[C@@H](C)C2 [Schisandrin, schisandrin] | > 50 µM | 40.9 µM | > 50 µM | 14.7 µM | > 50 µM |  | 22 µM | > 50 µM | > 50 µM
COc1c2c(cc3c1-c1c(cc4c(c1OC)OCO4)C[C@H](C)[C@H](C)C3)OCO2 [Wuweizisu C, wuweizisu C] | > 50 µM | > 50 µM | 1.4 µM | 2.9 µM | 14.6 µM |  | 21 µM | > 50 µM | > 50 µM
COc1cc2c(c(OC)c1OC)-c1c(cc3c(c1OC)OCO3)C[C@H](C)[C@](C)(O)[C@H]2OC(=O)c1ccccc1 [Gomisin C, gomisin C] | > 50 µM | > 50 µM | > 50 µM | 33.1 µM | 5.8 µM |  |  | 24 µM | > 50 µM
